Format in all cases: cell-based
The target in assay [1] is T1, IKZF2 (Homo sapiens, UniProt Q96SW2+Q9UKS7). Kind of assay: HEK293 HiBiT in vitro degradation of IKZF2. Also noted: expressed in transfected cells. The following applies: for Dmax: HEK293, HEK293 HiBiT; for Dmax / IKZF2 Dmax: maximum degradation at the highest concentration tested; for DC50 / IKZF2 Dmax: HEK293 HiBiT; for DC50: 18-24 hr incubation, normalized to DMSO control, read-out: IKZF2 EC50. A digest of the protocol: (§1)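 Flp-In T-REx HEK293 stable pools carry a single integrated copy of C-terminal HiBiT-tagged IKZF1, IKZF2 or SALL4 under a tetracycline operator, induced overnight at 37 °C with doxycycline ([…] final). Cells were then treated with serially diluted compounds for 18-24 h. Nano-Glo lytic luminescence gave EC50 and Dmax.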
Target sequence in this assay (Q9UKS7 1-500 isoform Q9UKS7-2): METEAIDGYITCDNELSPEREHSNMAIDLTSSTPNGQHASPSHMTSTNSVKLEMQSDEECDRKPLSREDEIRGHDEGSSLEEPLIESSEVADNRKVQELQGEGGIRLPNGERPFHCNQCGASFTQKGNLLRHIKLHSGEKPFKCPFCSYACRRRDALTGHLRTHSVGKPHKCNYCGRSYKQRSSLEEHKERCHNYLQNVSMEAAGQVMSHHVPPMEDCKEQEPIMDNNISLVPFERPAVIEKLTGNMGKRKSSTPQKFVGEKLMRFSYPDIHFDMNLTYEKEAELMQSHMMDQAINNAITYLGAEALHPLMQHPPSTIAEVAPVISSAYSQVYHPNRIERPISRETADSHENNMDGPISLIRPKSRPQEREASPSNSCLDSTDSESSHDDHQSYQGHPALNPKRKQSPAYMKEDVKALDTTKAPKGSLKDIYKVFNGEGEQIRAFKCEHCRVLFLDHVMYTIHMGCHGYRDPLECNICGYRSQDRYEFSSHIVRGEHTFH
Target sequence in this assay (Q96SW2 whole entry): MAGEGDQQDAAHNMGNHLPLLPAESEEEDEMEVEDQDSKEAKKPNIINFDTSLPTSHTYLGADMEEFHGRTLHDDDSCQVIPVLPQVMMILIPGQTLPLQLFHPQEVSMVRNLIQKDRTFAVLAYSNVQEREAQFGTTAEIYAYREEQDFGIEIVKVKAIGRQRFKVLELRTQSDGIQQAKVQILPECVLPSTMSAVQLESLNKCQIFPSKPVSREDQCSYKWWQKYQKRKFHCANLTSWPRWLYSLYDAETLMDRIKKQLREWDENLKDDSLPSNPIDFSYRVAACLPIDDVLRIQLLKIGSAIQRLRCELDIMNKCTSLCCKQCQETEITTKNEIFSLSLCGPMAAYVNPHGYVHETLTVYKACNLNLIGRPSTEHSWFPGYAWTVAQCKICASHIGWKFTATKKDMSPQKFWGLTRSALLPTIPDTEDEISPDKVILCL
Target sequence in this assay (Q16531 whole entry partner): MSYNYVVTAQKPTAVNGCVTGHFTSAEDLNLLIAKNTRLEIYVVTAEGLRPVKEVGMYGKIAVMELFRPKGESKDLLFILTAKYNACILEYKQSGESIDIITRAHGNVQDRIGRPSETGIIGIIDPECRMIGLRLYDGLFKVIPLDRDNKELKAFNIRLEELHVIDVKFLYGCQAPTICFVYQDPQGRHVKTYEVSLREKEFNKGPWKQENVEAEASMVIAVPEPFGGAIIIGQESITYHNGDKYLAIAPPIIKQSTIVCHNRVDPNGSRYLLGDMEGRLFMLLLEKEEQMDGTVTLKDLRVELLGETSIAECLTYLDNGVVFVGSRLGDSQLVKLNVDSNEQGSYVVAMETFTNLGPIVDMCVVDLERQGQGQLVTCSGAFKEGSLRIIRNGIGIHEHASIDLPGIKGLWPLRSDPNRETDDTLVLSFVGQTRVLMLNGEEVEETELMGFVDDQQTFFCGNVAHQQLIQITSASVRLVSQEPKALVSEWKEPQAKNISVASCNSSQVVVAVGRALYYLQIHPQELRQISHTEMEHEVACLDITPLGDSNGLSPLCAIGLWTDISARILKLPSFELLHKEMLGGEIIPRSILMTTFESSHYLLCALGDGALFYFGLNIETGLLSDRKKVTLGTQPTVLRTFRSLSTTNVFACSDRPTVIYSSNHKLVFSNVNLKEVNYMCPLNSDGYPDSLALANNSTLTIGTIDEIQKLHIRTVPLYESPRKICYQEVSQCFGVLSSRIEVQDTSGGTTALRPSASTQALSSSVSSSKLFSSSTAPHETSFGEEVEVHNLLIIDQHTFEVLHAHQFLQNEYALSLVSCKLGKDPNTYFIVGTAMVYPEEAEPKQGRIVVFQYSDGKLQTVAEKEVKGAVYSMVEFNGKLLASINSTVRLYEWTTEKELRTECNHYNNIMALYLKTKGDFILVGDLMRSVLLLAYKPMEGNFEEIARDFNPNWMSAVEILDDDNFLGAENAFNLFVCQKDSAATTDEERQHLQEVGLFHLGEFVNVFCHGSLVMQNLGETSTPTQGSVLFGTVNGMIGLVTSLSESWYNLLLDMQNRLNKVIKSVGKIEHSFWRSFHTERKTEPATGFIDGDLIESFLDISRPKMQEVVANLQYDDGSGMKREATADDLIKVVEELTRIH

The subject of assay [2] is IL-2 production in Jurkat cells. Kind of assay: Jurkat IL-2 functional assay (ELISA of supernatants). To be noted: Homo sapiens; for maximal fold induction: Jurkat, top of the curve fit; for EC50: overnight incubation. As for the experimental part:
(§2) Jurkat cell line (ATCC, Clone E6-1), highly expresses IKZF2 and lends it an appropriate system to screen degradation along with a functional readout. Jurkat cells were grown to 80% confluency in TC medium (RPMI containing glutamax, 10% FBS, 1% NEAA, and 1% Pen/Strep Glutamin in tissue culture flasks.
(§3) The cells were spun down at 400 g for 5 mins and counted. 100 K cells per well were added to a 96-well plate. The compounds were introduced starting at 10 μM and dilutions were made 1:10 for each compound. 100 μL of compound was added to each well for a 12-point titration. The cells were incubated at 37° C. with 5% CO2 overnight.
The following day, supernatants were collected for a functional readout using ELISA. The supernatants were diluted 1:2 and added to appropriate Human IL-2 plates for IL-2 functional readout.
The top of the curve fit for each compound is reported as the IL-2 ‘fold increase over DMSO control.’

The target in assay [3] is T1, IKZF2. Nature of the assay: Jurkat IKZF2 degradation (flow cytometry). Also noted: endogenous in cells. The following applies: Jurkat cells, overnight incubation; for Dmax: maximum degradation at the highest concentration tested; for DC50: flow cytometry, normalized to DMSO control, read-out: IKZF2 Degradation EC50. As for the experimental part: as §2, §3
Target sequence in this assay (Q9UKS7 whole entry): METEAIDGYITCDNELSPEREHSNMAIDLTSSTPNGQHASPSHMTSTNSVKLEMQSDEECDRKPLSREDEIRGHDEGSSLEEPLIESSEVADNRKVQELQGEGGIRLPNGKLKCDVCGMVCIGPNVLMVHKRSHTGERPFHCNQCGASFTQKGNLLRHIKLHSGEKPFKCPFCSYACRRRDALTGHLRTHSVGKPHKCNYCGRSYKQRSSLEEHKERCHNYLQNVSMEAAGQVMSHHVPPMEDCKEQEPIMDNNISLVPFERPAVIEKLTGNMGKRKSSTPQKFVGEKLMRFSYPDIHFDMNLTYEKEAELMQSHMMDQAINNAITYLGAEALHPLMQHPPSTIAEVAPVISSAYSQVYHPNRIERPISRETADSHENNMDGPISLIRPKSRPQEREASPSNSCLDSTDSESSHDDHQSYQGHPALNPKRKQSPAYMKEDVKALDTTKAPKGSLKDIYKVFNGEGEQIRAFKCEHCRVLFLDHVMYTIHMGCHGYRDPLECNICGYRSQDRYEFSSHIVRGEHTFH
Target sequence in this assay (Q96SW2 whole entry): as the sequence (Q96SW2 whole entry) above
Target sequence in this assay (Q16531 whole entry partner): as the sequence (Q16531 whole entry partner) above
Cells were stained with appropriate surface and intracellular antibodies and acquired by flow cytometry and analysed for degradation. […]

The next assay deals with T2, IKZF1 (Homo sapiens, UniProt Q13422+Q96SW2).
T2 construct: expressed in transfected cells
Nature of the assay: HEK293 HiBiT in vitro degradation of IKZF1. To be noted: for DC50: HEK293 HiBiT, 18-24 hr incubation, normalized to DMSO control, read-out: IKZF1 EC50; for Dmax: HEK293, HEK293 HiBiT, maximum degradation at the highest concentration tested. The essentials: as §1

The target in assay [4] is T1, IKZF2. Nature of the assay: Human whole blood IKZF2 degradation (flow cytometry, CD4/CD25/Foxp3+ Treg cells). Also noted: endogenous in cells. The following applies: 24 hrs incubation, IKZF2 MFI in CD4/CD25/Foxp3+ Treg cells, flow cytometry; for DC50: read-out: IKZF2 EC50. The essentials:
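Fresh healthy-donor human whole blood stimulated with CD3/CD28 activator and serially diluted compound for 24 hrs at 37° C. IKZF2 MFI in CD4/CD25/Foxp3+ Tregs (IKZF1 MFI in CD4+ T cells) measured by flow cytometry after RBC lysis, fixation, permeabilization. EC50 and Dmax versus DMSO wells.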
Target sequence in this assay (Q9UKS7 whole entry): as the sequence (Q9UKS7 whole entry) above
Target sequence in this assay (Q96SW2 whole entry): as the sequence (Q96SW2 whole entry) above
Target sequence in this assay (Q16531 whole entry partner): as the sequence (Q16531 whole entry partner) above

Assay [5] has as its target T1, IKZF2. Nature of the assay: HEK293 IKZF2 degradation kinetics (HiBiT, timepoints 1-24 h). Also noted: expressed in transfected cells. The following applies: HEK293, IKZF2; timepoints 1, 2, 3, 4.5 and 24 hour; read-out: Maximum degradation rate Kinact (converted). How it is done: The assay technology and principles for evaluating IKZF2 degradation kinetics in HEK293 cells was identical to the HEK293 degradation assay as described above. Additional details are briefly described below.
On Day 1, Cells were grown and induced the same as described above. On Days 2 and 3, compounds for testing were dispensed via ECHO and cells were lifted and plated into compound-spotted assay plates as above. Plates were returned to the 37° C. incubator until addition of Nano-Glo lytic reagent at 1, 2, 3, 4.5, and 24 hour timepoints. At these timepoints, plates were read on Envision reader as above.
All raw data was normalized to DMSO control (final concentration: 0.5%) wells as POC and plotted out as a function of time to generate the degradation rate constant (K) value. The maximum degradation rate (Kinact) was determined by plotting the K value as a function of concentration for each compound tested. Kinact values are shown in Table 25 and the degradation rate plots as well as timecourse of degradation are shown for select compounds in FIG. 1A, FIG. 1B, FIG. 2A and FIG. 2B.
Target sequence in this assay (Q9UKS7 1-500 isoform Q9UKS7-2): as the sequence (Q9UKS7 1-500 isoform Q9UKS7-2) above
Target sequence in this assay (Q96SW2 whole entry): as the sequence (Q96SW2 whole entry) above
Target sequence in this assay (Q16531 whole entry partner): as the sequence (Q16531 whole entry partner) above

Another assay concerns the target T3, SALL4 (Homo sapiens, UniProt Q96SW2+Q9UJQ4).
T3 construct: expressed in transfected cells
Nature of the assay: HEK293 HiBiT in vitro degradation of SALL4. To be noted: 18-24 hr incubation, normalized to DMSO control, read-out: SALL4 EC50. How it is done: In vitro degradation of IKZF1, IKZF2, and SALL4 was measured using HiBiT protein tagging and detection technology (Promega).
HiBit technology was used to develop the quantitative assays to measure the cellular IKZFs level by tagging an 11 amino acid HiBit peptides […] to the protein of interest. Reporter plasmids were generated by fusing a linker sequence ([…]) followed by the HiBit tag at the C-terminus of IKZF1, IKZF2, and SALL4. The fusion fragments were subsequently cloned into pcDNA5 pcDNA™5/FRT/TO plasmids (Thermo Fisher, cat #V652020) downstream of the tetracycline operator. The resulting plasmids were co-transfected with pOG44 Flp-Recombinase Expression Vector (Thermo Fisher, cat #V600520) into Flp-In™ T-REx HEK293 line (Thermo Fisher, cat #R78077) and a stable cell pool was selected by adding 100 µg/ml of Hygromycin (Thermo Fisher, cat #10687010). The reporter cell enabled Tet-On inducible reporter expression from a single copy of the integrated gene.
On Day 1, Cells were grown to ˜80% confluency in tissue culture medium (DMEM Glutamax (Gibco10569), 10% Tet free FBS (Takara 631106), and PenStrep Glutamin (Gibco 10378)) in tissue culture flasks. Doxycycline was then added to a final concentration of […] to induce reporter expression at 37° C. overnight.
On Day 2, 125 nL of serially-diluted solution of testing compounds were dispensed into 384-well white solid assay plates via ECHO acoustic liquid handler. Cells were lifted by 0.25% Trypsin (Gibco 25200) then pelleted by centrifugation (Beckman Avanti J-E) at 500×g for 5 min. Cell pellets were resuspended in TC medium at the concentration of 3e5/mL and 25 μL of cell suspension were added into each well of compound-spotted plates. The plates were returned to a 37° C. incubator overnight (18-24 hr).
On Day 3, assay plates were removed from the tissue culture incubator and 25 μL of Nano-Glo lytic detection system (Promega, cat #N3030) was added to each well. Plates were incubated at r.t. for 3 min with shaking, and luminescence was read using an Envision reader (Perkin Elmer).
To assess the IKZF1, IKZF2, and SALL4 degrader potential of exemplified compounds of this disclosure and certain Reference Compounds EC50 and Dmax values were determined for the compounds of Examples 1 to 383 and Reference Compounds A-1, B-1, B-2, B-3, B-4, and C-1 in the HiBiT assays. Asterisks (*) indicate examples for which the data shown represents an average of n≥3.

[6] abbreviates: ELISA of supernatants, read-out: IL-2 Production Fold increase over DMSO control.
[7] abbreviates: read-out: increase in IL-2 production relative to DMSO control.

We go through 10 compounds from patent publication US11897862B2 (Gilead Sciences, Inc., priority 2022, dated 2024).

Read-outs that look alike come from different tables or passages of the source.

T3 sequence (Q9UJQ4 whole entry): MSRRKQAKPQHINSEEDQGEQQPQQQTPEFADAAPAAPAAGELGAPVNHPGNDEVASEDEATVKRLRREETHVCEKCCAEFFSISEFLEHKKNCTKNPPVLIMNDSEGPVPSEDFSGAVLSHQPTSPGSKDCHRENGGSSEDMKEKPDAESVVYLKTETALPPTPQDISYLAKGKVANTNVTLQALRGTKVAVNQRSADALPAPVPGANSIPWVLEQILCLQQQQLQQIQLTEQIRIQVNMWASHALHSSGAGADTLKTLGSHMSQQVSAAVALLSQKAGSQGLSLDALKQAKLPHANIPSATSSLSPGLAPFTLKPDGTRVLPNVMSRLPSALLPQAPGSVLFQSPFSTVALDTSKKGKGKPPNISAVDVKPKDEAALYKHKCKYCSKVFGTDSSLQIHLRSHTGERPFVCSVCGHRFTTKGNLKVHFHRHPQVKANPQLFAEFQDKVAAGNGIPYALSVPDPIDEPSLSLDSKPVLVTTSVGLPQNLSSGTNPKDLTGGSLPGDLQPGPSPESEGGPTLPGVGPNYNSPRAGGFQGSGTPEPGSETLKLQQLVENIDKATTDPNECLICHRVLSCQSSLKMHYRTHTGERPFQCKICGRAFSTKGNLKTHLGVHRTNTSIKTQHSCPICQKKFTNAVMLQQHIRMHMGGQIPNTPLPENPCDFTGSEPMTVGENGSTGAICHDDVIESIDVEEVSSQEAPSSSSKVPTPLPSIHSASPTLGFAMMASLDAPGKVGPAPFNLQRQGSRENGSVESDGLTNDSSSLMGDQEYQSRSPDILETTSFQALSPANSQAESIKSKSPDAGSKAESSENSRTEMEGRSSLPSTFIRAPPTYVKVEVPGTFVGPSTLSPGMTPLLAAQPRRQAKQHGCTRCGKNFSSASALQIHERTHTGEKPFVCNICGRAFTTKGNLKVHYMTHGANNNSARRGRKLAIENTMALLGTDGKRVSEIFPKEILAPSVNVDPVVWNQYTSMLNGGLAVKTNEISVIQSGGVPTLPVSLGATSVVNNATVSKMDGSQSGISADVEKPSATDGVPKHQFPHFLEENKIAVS
T3 sequence (Q96SW2 whole entry): as the sequence (Q96SW2 whole entry) above
T3 sequence (Q16531 whole entry partner): as the sequence (Q16531 whole entry partner) above
T2 sequence (Q13422 whole entry): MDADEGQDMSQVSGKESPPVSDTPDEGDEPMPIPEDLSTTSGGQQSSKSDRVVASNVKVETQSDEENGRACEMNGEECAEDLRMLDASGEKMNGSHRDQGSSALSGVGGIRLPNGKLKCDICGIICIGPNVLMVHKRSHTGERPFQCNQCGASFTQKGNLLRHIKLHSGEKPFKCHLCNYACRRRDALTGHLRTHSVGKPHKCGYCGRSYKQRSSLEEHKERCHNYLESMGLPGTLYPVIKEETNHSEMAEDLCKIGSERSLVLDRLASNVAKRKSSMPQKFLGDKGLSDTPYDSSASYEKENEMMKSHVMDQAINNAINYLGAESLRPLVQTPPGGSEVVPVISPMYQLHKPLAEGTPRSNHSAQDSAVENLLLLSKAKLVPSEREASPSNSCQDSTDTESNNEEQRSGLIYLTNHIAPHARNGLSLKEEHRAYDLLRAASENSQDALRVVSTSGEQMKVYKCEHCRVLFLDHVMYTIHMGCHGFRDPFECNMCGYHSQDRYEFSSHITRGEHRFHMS
T2 sequence (Q96SW2 whole entry): as the sequence (Q96SW2 whole entry) above
T2 sequence (Q16531 whole entry partner): as the sequence (Q16531 whole entry partner) above

On to `CCN[C@H]1CCCC[C@@H]1Oc1ccc2c(c1)CN(C1CCC(=O)NC1=O)C2=O` (some centres unmarked) [Example B-2], for which the values for the Dmax on IKZF2 [1] and on IKZF2 [3] were 93% and 83%, respectively. Besides, in assay [2] (setting [6]), the maximal fold induction was 1.8. This compound also yielded a concentration for a half-maximal effect (EC50) in assay [2] (ELISA of supernatants) of 18 nM.

For the compound `O=C1CCC(N2Cc3c(ccc(C[C@H]4OCCC[C@@H]4NC4CCC(F)(F)CC4)c3F)C2=O)C(=O)N1` (stereo partly drawn) [Example 94, 3-(5-(((2R,3S)-3-((4,4-difluorocyclohexyl)amino)tetrahydro-2H-pyran-2-yl)methyl)-4-fluoro-1-oxoisoindolin-2-yl)piperidine-2,6-dione], the values for the Dmax at IKZF2 [1], on IKZF2 [3] and at IKZF2 [4] were 96%, 88% and 90%, respectively. For the same compound, the DC50 on IKZF2 [1] is 10 nM; on IKZF1, greater than 10000 nM; at IKZF2 [3] it was 2 nM; on IKZF2 [4] it was 7 nM. For the same compound, the results for the maximal fold induction in assay [2] (setting [6]) and in assay [2] (setting [7]) were 2.1 and no less than 1.9, respectively. Also, the half-maximal effective concentration (EC50) in assay [2] (ELISA of supernatants) turned out to be 2.3 nM.

With `O=C1CC[C@@H](N2Cc3cc(C[C@H]4CCCC[C@@H]4NC4CCC(F)(F)CC4)ccc3C2=O)C(=O)N1` (single isomer, unassigned) [Example 329], the kinact at IKZF2 [5] was 0.000158 s⁻¹. The Dmax worked out at 98% at IKZF2 [1], 53% at IKZF1 and 97% at IKZF2 [4]. For the same compound, the DC50 on IKZF2 [1] was 2 nM; on IKZF1, 50 nM; at IKZF2 [4] it was 4 nM; on SALL4 it was greater than 10000 nM.

Take `O=C1CCC(N2Cc3c(ccc(C[C@H]4OCCC[C@@H]4N[C@H]4CC[C@H](F)CC4)c3F)C2=O)C(=O)N1` (single isomer, unassigned) [Example 289]: the kinact on IKZF2 [5] was 0.000131 s⁻¹. The Dmax was 97% at IKZF2 [1], 31% on IKZF1 and 90% on IKZF2 [4]. Besides, the DC50 on IKZF2 [1] was 5 nM; at IKZF1, 632 nM; at IKZF2 [4], 5 nM; on SALL4, greater than 10000 nM.

Turning to `O=C1CCC(N2Cc3c(ccc(C[C@H]4CCCC[C@@H]4NC4CCC(F)(F)CC4)c3F)C2=O)C(=O)N1` (stereo partly drawn) [Example 84, 3-(5-(((1R,2S)-2-((4,4-difluorocyclohexyl)amino)cyclohexyl)methyl)-4-fluoro-1-oxoisoindolin-2-yl)piperidine-2,6-dione], the Dmax on IKZF2 [1] was determined as 97%; on IKZF1 it was 68%; on IKZF2 [3] it was 97%; on IKZF2 [4], 93%. Moreover, the DC50 was found to be 1 nM on IKZF2 [1], 28 nM at IKZF1, 0.05 nM on IKZF2 [3] and 1 nM on IKZF2 [4]. The maximal fold induction in assay [2] (setting [6]) was 2.6; in assay [2] (setting [7]), no less than 1.9. Also, the EC50 in assay [2] (ELISA of supernatants) was 0.2 nM.

Regarding `CC(N[C@H]1CCCO[C@@H]1Cc1ccc2c(c1F)CN(C1CCC(=O)NC1=O)C2=O)C1CCOCC1` (single isomer, unassigned) [Example 291], the kinact at IKZF2 [5] is 8.61e-05 s⁻¹. Further, the maximal degradation (Dmax) is 94% at IKZF2 [1] and 96% on IKZF2 [4]. The DC50 at IKZF2 [1] is 10 nM; at IKZF1, greater than 1000 nM; at IKZF2 [4], 5 nM; at SALL4, greater than 10000 nM.

For `CCN[C@H]1CCCC[C@@H]1Cc1ccc2c(c1)CN(C1CCC(=O)NC1=O)C2=O` (stereo partly drawn) [Example 35, 3-(5-(((1R,2S)-2-(ethylamino)cyclohexyl)methyl)-1-oxoisoindolin-2-yl)piperidine-2,6-dione], the results for the Dmax at IKZF2 [1], at IKZF1 and on IKZF2 [3] were 94%, 31% and 83%, respectively. The DC50 on IKZF2 [1] amounted to 29 nM; on IKZF1, 261 nM; at IKZF2 [3], 3.9 nM. Moreover, the values for the maximal fold induction in assay [2] (setting [6]) and in assay [2] (setting [7]) were 1.9 and no less than 1.9, respectively. In assay [2] (ELISA of supernatants), this compound yielded an EC50 of 141 nM.

`O=C1CCC(N2Cc3cc(O[C@H]4CCCC[C@@H]4NC4CCC(F)(F)CC4)ccc3C2=O)C(=O)N1` (some centres unmarked) [Example B-4]: the kinact at IKZF2 [5] is 0.000144 s⁻¹. The results for the Dmax on IKZF2 [1], at IKZF2 [3] and at IKZF2 [4] were 98%, 94% and 97%, respectively. Moreover, in assay [2] (setting [6]), the maximal fold induction was found to be 1.8. In assay [2] (ELISA of supernatants), this compound registered a concentration for a half-maximal effect (EC50) of 7.8 nM.

For `CC(N[C@H]1CCCC[C@@H]1Cc1ccc2c(c1)CN(C1CCC(=O)NC1=O)C2=O)C1CCC1` (some centres unmarked) [Example 218], the kinact at IKZF2 [5] is 0.000131 s⁻¹. Besides, the DC50 was 2 nM on IKZF2 [1], 626 nM on IKZF1, 0.8 nM on IKZF2 [3] and 4 nM at IKZF2 [4]. In addition, the “IKZF2 Dmax” value on IKZF2 [1] is reported as 95%; on IKZF2 [4], 97%. For the same compound, the maximal degradation (Dmax) on IKZF1 turned out to be 34%; on IKZF2 [3] it was 93%. Also, the maximal fold induction in assay [2] (setting [6]) is 2.2; in assay [2] (setting [7]), no less than 1.9. The compound also showed an EC50 in assay [2] (ELISA of supernatants) of 8 nM.

In the case of `CC1CC[C@H](NC2CCC(F)(F)CC2)[C@@H](Cc2ccc3c(c2)CN(C2CCC(=O)NC2=O)C3=O)C1` (single isomer, unassigned) [Example 325], the inactivation rate constant (kinact) on IKZF2 [5] is 0.000108 s⁻¹. The values for the DC50 on IKZF2 [1], at IKZF1 and at SALL4 were 5 nM, greater than 1000 nM and greater than 10000 nM, respectively. At IKZF2 [1], the “IKZF2 Dmax” value is recorded as 95%.
